Experiments:
[1] = biological target: T1, Muscle, skeletal receptor tyrosine-protein kinase (Homo sapiens) (UniProt O15146); assay: Selectivity interaction (Kinase panel (Invitrogen)) EUB0000639a MUSK; settings: at 200 nM
T1 sequence (whole entry): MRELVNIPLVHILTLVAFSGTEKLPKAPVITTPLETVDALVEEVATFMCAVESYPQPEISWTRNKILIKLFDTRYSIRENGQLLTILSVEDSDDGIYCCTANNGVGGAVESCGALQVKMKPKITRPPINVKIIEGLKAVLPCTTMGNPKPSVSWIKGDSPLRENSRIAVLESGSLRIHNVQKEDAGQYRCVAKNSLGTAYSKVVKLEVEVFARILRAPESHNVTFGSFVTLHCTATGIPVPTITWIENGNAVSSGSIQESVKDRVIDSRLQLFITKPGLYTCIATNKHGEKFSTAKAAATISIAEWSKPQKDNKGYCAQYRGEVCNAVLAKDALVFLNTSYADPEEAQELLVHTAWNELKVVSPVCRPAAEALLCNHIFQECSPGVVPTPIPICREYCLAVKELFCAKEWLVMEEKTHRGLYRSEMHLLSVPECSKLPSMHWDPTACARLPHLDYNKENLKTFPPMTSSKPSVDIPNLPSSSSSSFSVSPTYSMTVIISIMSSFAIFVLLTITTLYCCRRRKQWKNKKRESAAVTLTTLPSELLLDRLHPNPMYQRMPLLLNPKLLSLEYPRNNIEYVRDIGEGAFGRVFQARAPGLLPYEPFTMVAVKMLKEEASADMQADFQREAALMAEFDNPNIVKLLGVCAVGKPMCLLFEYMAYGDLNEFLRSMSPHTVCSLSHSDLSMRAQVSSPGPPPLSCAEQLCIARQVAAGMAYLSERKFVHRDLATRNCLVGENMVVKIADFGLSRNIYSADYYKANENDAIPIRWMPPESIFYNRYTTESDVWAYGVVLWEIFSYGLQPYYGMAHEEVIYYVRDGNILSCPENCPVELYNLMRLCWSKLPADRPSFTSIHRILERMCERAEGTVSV

[2] = biological target: Serine/threonine-protein kinase 26 (Homo sapiens, UniProt Q9P289); assay: Selectivity interaction (Ambit KINOMEscan and KiNATiv profiling in Jurkat cells) EUB0000090b STK26; type: cell-based; settings: at 1 µM
[3] = biological target: Receptor tyrosine-protein kinase erbB-2 (Homo sapiens, UniProt P04626); settings: at 10 µM
[4] = biological target: Serine/threonine-protein kinase 16 (Homo sapiens, UniProt O75716); assay: Selectivity interaction (KinomeScan (DiscoverX)) EUB0001619a STK16; settings: at 1 µM
[5] = test system: Epidermal growth factor receptor (Homo sapiens), P00533 [T790M]; assay: (§1) Selectivity interaction (KinomeScan (DiscoverX)) EUB0001619a EGFR; settings: at 1 µM
[6] = test system: Epidermal growth factor receptor (Homo sapiens), P00533 [G719S]; assay: as §1; settings: at 1 µM
[7] = test system: Epidermal growth factor receptor (Homo sapiens), P00533 [L861Q]; assay: as §1; settings: at 1 µM
[8] = test system: Epidermal growth factor receptor (Homo sapiens), P00533 [UNDEFINED MUTATION]; assay: as §1; settings: at 1 µM
[9] = biological target: Epidermal growth factor receptor (Homo sapiens, UniProt P00533); assay: as §1; settings: at 1 µM
[10] = test system: Epidermal growth factor receptor (Homo sapiens), P00533 [L858R,T790M]; assay: as §1; settings: at 1 µM
[11] = test system: Epidermal growth factor receptor (Homo sapiens), P00533 [G719C]; assay: as §1; settings: at 1 µM
[12] = test system: Epidermal growth factor receptor (Homo sapiens), P00533 [L858R]; assay: as §1; settings: at 1 µM
[13] = biological target: T2, Serine/threonine-protein kinase LATS2 (Homo sapiens) (UniProt Q9NRM7); assay: Selectivity interaction (KinomeScan (DiscoverX)) EUB0001619a LATS2; settings: at 1 µM
T2 sequence (whole entry): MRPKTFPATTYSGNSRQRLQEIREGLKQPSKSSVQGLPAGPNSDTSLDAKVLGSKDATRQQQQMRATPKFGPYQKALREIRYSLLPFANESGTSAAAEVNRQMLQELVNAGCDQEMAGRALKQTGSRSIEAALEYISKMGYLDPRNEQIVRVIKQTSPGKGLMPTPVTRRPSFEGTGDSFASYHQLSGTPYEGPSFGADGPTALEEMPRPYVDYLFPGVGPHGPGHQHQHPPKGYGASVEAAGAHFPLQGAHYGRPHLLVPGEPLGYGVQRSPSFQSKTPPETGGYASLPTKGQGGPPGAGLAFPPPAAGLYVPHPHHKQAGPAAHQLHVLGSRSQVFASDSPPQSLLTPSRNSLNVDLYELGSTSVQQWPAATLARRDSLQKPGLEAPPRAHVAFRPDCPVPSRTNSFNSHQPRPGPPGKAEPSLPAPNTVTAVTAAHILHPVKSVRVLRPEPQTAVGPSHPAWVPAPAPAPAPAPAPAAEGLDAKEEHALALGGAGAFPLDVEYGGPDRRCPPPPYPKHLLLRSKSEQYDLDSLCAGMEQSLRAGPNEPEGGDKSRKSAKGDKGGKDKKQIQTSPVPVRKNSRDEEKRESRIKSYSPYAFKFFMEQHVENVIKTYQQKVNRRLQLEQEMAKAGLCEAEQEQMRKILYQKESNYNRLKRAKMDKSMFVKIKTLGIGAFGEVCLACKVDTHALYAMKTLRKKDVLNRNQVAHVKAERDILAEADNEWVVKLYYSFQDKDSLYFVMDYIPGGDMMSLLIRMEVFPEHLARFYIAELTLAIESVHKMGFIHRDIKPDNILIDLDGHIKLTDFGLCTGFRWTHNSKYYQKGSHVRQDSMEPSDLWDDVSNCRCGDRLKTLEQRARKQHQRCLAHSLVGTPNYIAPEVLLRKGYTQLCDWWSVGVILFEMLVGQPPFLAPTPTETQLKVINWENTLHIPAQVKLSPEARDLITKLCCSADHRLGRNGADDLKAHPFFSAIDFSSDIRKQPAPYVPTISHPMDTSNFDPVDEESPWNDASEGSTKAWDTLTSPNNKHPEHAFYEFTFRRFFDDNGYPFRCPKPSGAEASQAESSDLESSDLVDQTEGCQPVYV

[14] = biological target: Mitogen-activated protein kinase 10 (Homo sapiens, UniProt P53779); assay: Selectivity interaction (KinomeScan (DiscoverX)) EUB0000607a MAPK10; settings: at 10 µM
[15] = biological target: Serine/threonine-protein kinase PAK 2 (Homo sapiens) (UniProt Q13177); assay: Selectivity interaction (Kinase panel (Z-LYTE Assay)) EUB0001632a PAK2; settings: at 10 µM
Chain of Serine/threonine-protein kinase PAK 2 (Homo sapiens) (Q13177 whole entry): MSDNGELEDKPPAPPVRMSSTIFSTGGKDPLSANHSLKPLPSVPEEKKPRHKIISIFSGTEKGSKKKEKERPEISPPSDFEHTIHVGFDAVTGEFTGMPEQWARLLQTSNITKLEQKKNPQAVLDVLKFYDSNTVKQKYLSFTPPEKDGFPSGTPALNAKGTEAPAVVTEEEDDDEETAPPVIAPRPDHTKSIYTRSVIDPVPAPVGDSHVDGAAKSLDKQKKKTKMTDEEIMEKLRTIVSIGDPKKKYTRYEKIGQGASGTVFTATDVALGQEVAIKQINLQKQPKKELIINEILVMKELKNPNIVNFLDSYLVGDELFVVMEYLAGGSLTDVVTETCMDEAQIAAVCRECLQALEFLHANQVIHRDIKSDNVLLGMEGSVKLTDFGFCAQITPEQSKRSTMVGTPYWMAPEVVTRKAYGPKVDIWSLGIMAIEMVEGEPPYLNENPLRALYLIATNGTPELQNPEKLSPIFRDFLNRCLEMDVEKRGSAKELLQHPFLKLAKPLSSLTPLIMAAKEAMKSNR

Chain of Epidermal growth factor receptor (Homo sapiens), P00533 [L858R,T790M] (P00533 whole entry T790M/L858R, looked up): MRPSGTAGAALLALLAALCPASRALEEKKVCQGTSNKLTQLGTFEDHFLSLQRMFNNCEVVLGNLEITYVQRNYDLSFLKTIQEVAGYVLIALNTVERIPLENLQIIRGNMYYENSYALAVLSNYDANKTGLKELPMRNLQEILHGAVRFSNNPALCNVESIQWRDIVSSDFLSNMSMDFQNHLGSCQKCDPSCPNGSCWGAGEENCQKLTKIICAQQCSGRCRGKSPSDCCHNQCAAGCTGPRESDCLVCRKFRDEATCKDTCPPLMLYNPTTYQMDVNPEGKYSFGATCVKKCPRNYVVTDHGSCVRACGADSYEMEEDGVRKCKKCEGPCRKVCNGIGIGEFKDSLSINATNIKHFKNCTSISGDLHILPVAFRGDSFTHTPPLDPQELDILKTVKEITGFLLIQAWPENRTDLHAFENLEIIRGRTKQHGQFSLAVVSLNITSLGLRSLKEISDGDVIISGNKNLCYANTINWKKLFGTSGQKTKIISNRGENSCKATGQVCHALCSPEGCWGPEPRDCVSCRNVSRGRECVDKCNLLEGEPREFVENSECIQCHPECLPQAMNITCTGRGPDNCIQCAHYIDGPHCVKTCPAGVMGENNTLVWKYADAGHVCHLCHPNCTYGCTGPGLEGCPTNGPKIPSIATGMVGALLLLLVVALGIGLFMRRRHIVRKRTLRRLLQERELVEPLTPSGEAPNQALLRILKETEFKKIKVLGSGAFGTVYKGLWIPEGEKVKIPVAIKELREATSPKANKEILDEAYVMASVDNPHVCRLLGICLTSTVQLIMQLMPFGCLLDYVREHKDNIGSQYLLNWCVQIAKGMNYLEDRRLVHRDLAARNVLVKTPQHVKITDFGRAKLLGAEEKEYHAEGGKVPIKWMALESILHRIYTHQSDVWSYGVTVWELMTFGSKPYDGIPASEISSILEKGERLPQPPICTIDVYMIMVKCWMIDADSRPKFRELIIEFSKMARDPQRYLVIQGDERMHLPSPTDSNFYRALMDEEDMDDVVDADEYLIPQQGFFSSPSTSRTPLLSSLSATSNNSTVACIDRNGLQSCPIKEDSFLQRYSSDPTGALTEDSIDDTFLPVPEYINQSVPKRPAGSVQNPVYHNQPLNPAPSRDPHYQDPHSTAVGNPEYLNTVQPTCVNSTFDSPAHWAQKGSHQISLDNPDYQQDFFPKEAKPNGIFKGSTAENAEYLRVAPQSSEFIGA
Chain of Serine/threonine-protein kinase 26 (Q9P289 2-416 limits assumed): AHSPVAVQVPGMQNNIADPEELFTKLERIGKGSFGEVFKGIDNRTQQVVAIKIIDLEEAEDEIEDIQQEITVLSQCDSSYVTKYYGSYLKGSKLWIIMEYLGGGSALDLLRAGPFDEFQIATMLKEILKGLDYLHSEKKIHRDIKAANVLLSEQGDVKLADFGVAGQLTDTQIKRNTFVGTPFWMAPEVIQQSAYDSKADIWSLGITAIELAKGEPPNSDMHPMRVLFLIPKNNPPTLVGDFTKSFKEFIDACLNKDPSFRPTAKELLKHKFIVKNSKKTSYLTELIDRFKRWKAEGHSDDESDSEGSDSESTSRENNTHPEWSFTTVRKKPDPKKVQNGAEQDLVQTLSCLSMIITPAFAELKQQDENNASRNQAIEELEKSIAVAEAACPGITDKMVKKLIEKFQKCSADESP
Chain of Epidermal growth factor receptor (Homo sapiens), P00533 [T790M] (P00533 whole entry T790M): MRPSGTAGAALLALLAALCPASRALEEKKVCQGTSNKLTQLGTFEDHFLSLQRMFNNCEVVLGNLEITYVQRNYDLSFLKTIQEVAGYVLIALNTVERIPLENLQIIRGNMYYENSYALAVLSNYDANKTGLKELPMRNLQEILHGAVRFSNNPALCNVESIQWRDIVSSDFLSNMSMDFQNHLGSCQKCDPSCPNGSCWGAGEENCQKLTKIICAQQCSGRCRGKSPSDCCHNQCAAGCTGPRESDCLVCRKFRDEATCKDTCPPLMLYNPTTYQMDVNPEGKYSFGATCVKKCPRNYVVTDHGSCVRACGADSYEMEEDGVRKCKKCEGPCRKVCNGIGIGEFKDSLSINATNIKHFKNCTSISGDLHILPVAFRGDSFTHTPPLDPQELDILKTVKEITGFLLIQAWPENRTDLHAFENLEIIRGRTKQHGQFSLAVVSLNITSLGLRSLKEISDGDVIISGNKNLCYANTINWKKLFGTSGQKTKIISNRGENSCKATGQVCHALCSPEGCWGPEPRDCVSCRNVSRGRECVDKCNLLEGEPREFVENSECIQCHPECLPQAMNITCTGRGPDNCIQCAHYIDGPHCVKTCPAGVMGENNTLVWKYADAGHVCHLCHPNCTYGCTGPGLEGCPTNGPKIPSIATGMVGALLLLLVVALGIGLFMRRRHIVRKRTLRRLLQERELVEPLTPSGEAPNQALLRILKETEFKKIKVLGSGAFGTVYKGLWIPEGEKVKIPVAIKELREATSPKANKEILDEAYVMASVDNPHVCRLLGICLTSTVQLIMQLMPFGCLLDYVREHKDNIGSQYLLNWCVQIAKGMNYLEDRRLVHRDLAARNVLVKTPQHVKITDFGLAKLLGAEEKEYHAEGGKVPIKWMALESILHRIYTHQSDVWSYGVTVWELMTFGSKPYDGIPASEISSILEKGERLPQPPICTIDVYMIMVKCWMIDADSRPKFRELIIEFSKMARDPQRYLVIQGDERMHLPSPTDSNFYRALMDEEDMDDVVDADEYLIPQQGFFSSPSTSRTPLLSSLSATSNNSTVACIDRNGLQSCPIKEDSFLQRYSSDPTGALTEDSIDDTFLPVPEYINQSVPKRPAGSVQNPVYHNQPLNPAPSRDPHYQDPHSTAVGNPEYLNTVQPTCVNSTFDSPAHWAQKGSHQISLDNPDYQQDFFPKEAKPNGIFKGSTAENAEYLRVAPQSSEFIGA
Chain of Mitogen-activated protein kinase 10 (P53779 whole entry): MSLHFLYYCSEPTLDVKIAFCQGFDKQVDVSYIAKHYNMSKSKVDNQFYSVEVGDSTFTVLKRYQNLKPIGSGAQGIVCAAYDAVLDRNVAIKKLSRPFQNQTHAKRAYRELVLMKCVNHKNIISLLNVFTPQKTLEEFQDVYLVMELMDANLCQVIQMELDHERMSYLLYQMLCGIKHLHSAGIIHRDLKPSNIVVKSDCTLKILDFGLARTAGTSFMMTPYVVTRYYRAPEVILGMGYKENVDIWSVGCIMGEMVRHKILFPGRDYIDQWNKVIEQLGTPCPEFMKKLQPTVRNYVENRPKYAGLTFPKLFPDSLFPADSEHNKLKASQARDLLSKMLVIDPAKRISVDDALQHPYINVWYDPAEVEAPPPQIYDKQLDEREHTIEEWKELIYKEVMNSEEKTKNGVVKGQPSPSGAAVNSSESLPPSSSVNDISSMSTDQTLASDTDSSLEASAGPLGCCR
Chain of Epidermal growth factor receptor (Homo sapiens), P00533 [L858R] (P00533 whole entry L858R): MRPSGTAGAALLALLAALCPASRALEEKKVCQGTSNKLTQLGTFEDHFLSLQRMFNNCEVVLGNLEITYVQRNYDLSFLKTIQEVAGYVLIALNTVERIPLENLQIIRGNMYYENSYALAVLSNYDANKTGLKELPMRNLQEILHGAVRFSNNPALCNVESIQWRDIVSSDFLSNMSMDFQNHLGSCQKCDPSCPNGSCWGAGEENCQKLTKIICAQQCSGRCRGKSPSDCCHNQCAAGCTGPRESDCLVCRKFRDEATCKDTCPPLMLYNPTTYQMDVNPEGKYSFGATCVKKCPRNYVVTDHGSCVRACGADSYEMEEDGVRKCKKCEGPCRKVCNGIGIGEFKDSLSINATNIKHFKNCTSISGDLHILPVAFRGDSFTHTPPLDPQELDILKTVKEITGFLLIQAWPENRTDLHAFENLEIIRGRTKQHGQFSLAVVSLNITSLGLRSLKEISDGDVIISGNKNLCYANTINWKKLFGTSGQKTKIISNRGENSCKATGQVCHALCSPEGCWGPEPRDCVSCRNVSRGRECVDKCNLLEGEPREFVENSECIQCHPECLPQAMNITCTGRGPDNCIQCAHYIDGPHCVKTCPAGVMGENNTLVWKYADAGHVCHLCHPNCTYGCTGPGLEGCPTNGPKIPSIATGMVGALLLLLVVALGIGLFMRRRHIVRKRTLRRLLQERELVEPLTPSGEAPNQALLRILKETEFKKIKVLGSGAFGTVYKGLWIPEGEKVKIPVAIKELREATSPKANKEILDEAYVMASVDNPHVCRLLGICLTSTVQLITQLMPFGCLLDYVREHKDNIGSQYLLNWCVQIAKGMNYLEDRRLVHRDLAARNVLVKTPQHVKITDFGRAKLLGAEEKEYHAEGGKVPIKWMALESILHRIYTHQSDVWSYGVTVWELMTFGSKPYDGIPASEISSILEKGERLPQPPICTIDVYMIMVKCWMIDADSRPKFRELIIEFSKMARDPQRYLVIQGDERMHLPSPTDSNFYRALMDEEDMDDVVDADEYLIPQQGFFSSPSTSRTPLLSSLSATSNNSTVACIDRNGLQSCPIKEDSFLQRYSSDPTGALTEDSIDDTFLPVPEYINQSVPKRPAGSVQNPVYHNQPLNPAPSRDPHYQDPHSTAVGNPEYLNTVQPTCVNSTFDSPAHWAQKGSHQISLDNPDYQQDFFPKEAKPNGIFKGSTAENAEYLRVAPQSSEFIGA

SMILES: CC[C@@H]1[C@H](F)C(=O)N[C@@H]1COc1nccc2cc(C(N)=O)c(OC)cc12 [ZIMLOVISERTIB]
- % of inhibition [1]: -2.77%

SMILES: CN(C)C/C=C/C(=O)Nc1ccc(C(=O)N2CCCC(Nc3ncc(Cl)c(-c4c[nH]c5ccccc45)n3)C2)cc1 (stereo not given)
- % of control [2]: 88%

SMILES: Cc1cc([C@@H](C)Nc2ccccc2C(=O)O)c2nc(N3CCOCC3)cc(=O)n2c1 [AZD-6482]
- % of control [3]: 100%

SMILES: N#Cc1cccc(-c2c[nH]c3ncnc(N4CCOCC4)c23)c1
- % of control [4]: 33%
- % of control [5]: 81%
- % of control [6]: 100%
- % of control [7]: 86%
- % of control [8]: 77%
- % of control [9]: 100%
- % of control [10]: 100%
- % of control [11]: 84%
- % of control [12]: 78%
- % of control [13]: 87%

SMILES: CNC(=O)Nc1ccc(-c2nc(N3CC4CCC(C3)O4)c3cnn(C4CCC5(CC4)OCCO5)c3n2)cc1
- % of control [14]: 86%

SMILES: Cn1cc(-n2cnc3c(NCc4nc5cc(Cl)c(Cl)cc5[nH]4)nc(N4CCOCC4)nc32)cn1
- % of control [15]: -1.61%

Reference: ChEMBL document CHEMBL5465560, “Selectivity Literature for EUbOPEN Chemogenomic Library” (2024)
